Results published in ChEMBL document CHEMBL3991601, “The target landscape of clinical kinase drugs” (Science, 2017).
The source made the active and inactive calls.

Legend:
[1] = biological target: T1, Adenine phosphoribosyltransferase (Homo sapiens, UniProt P07741)
T1 sequence (P07741 whole entry): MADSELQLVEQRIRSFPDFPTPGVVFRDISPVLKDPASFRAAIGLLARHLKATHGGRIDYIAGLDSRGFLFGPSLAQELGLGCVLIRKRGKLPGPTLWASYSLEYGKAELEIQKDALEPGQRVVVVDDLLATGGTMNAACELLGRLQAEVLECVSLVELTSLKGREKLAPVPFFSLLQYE

[2] = biological target: Serine/threonine-protein kinase pim-2 (Homo sapiens, UniProt Q9P1W9)
Chain of Serine/threonine-protein kinase pim-2 (Q9P1W9 whole entry): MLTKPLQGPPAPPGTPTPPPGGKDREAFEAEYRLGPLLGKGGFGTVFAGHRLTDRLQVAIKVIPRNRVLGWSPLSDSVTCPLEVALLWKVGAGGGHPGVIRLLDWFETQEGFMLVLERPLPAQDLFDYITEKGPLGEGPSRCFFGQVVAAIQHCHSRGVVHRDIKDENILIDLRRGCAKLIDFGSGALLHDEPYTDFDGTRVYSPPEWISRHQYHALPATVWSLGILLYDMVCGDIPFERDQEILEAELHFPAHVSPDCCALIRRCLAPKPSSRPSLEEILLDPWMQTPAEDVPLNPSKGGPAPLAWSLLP

[3] = biological target: T2, Phosphatidylinositol 5-phosphate 4-kinase type-2 alpha (Homo sapiens, UniProt P48426)
T2 sequence (P48426 whole entry): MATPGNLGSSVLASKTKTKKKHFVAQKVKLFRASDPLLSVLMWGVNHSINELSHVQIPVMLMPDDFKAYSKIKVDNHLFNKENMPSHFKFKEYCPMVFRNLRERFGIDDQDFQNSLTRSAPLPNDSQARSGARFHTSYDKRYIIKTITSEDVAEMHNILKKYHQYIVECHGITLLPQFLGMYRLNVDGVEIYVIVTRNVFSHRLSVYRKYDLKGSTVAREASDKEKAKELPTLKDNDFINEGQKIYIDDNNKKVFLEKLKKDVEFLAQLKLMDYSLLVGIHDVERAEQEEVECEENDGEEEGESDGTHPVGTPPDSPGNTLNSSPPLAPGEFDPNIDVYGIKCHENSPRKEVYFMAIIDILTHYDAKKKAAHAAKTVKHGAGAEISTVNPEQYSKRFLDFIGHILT

[4] = biological target: Serine/threonine-protein kinase Nek7 (Homo sapiens, UniProt Q8TDX7)
Chain of Serine/threonine-protein kinase Nek7 (Q8TDX7 whole entry): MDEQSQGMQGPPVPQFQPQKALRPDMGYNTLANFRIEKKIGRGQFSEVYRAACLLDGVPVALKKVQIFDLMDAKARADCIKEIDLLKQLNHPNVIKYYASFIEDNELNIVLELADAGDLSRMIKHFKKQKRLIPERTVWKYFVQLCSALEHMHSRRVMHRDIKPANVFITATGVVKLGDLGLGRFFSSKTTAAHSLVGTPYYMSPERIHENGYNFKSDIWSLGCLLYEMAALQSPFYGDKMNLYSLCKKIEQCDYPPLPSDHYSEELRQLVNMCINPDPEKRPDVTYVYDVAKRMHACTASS

[5] = biological target: Serine/threonine-protein kinase ATR (Homo sapiens, UniProt Q13535)
Chain of Serine/threonine-protein kinase ATR (Q13535 whole entry, the tested form may be a part): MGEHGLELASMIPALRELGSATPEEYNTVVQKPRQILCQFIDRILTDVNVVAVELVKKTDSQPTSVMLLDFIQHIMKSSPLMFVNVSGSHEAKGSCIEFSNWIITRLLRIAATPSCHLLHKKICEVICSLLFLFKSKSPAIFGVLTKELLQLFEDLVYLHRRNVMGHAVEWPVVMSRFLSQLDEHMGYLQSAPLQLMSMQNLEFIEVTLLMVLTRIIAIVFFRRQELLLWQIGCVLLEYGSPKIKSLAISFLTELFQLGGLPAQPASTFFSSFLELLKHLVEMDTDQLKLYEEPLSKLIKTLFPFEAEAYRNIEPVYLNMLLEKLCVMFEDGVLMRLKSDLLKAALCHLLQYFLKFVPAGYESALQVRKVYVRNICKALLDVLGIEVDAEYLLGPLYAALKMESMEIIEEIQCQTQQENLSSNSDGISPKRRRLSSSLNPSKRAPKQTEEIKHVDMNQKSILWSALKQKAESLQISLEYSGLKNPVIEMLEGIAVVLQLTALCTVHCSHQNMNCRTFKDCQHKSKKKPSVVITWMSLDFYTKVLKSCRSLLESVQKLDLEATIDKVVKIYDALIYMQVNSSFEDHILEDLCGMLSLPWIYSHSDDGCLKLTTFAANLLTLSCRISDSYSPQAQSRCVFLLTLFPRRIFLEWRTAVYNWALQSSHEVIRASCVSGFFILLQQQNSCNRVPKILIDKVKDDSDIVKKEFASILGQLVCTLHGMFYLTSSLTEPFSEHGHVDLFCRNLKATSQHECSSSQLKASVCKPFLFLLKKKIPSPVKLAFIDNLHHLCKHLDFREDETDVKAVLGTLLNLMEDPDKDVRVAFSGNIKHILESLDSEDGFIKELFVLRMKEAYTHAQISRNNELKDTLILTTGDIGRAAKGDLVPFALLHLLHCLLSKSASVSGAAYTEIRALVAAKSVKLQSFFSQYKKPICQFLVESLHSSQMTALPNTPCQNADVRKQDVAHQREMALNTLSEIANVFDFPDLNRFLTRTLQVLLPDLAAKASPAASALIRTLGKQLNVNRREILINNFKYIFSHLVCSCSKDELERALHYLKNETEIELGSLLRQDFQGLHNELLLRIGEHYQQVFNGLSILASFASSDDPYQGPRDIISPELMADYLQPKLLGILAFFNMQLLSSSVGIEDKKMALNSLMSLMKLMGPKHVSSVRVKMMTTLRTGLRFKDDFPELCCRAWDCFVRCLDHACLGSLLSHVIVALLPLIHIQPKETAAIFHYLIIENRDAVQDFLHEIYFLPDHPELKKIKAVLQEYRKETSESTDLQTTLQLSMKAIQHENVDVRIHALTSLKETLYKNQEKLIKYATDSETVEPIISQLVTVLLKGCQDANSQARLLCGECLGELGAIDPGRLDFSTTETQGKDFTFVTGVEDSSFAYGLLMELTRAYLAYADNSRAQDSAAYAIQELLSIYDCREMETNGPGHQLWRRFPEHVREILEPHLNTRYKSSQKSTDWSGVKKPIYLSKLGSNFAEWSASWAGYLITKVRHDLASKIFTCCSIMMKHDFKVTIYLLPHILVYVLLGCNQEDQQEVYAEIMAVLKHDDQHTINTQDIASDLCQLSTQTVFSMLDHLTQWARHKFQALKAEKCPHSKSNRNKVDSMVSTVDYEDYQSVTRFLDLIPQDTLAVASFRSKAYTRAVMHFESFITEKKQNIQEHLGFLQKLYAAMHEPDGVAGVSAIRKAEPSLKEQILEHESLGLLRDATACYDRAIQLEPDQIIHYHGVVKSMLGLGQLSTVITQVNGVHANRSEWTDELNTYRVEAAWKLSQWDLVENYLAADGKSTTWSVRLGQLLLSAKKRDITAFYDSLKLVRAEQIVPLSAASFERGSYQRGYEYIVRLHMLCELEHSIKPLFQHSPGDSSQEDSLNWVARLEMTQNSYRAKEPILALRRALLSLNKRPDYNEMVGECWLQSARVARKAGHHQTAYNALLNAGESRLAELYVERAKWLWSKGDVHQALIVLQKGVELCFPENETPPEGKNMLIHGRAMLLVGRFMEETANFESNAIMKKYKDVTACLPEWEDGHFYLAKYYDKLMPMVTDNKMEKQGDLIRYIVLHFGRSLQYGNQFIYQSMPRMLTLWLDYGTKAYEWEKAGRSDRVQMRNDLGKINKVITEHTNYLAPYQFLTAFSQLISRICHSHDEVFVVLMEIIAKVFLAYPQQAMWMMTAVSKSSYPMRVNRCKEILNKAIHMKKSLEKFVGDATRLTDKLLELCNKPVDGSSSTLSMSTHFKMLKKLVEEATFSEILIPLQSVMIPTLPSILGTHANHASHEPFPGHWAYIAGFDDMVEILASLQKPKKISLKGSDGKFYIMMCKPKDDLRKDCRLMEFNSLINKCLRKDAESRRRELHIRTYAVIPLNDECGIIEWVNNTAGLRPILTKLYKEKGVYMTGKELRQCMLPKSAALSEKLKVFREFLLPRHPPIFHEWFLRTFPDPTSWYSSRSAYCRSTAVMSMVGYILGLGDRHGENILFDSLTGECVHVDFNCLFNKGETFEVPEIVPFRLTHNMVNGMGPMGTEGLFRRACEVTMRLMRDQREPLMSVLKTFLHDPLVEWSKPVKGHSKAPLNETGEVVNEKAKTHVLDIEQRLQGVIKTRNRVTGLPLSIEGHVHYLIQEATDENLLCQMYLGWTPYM

[6] = biological target: Uncharacterized aarF domain-containing protein kinase 5 (Homo sapiens, UniProt Q3MIX3)
[7] = biological target: Serine/threonine-protein kinase 38-like (Homo sapiens, UniProt Q9Y2H1)
Chain of Serine/threonine-protein kinase 38-like (Q9Y2H1 whole entry): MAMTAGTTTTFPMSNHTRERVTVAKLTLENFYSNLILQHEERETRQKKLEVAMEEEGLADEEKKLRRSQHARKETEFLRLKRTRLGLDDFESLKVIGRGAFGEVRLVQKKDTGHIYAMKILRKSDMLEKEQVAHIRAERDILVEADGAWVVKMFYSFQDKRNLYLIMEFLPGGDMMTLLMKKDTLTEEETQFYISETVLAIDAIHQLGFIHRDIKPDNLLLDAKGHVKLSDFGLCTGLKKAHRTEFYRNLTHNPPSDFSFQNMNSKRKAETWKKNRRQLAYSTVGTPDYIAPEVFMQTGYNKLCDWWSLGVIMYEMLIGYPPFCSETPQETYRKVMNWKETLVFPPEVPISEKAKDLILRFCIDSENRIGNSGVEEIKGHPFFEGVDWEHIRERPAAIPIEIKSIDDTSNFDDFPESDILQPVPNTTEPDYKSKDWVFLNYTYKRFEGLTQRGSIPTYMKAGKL

[8] = biological target: Guanine nucleotide-binding protein G(i) subunit alpha-2 (Homo sapiens, UniProt P04899)
Chain of Guanine nucleotide-binding protein G(i) subunit alpha-2 (P04899 whole entry): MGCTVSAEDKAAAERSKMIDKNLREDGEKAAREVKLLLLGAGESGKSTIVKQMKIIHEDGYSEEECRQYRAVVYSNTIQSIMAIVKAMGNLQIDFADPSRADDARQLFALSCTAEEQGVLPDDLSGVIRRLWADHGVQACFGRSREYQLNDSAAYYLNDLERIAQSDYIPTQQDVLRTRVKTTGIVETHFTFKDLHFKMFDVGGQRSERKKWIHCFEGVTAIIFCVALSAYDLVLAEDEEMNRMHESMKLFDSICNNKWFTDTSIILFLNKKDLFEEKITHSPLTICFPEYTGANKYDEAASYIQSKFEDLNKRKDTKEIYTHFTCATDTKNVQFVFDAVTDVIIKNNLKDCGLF

[9] = biological target: Epidermal growth factor receptor (Homo sapiens, UniProt P00533)
[10] = biological target: Cyclin-dependent kinase 2 (Homo sapiens, UniProt P24941)
[11] = biological target: High affinity nerve growth factor receptor (Homo sapiens, UniProt P04629)
[12] = biological target: Dual specificity protein kinase CLK4 (Homo sapiens, UniProt Q9HAZ1)
[13] = biological target: Proto-oncogene tyrosine-protein kinase receptor Ret (Homo sapiens, UniProt P07949)
[14] = biological target: Dual specificity protein kinase CLK2 (Homo sapiens, UniProt P49760)
Chain of Dual specificity protein kinase CLK2 (P49760 whole entry): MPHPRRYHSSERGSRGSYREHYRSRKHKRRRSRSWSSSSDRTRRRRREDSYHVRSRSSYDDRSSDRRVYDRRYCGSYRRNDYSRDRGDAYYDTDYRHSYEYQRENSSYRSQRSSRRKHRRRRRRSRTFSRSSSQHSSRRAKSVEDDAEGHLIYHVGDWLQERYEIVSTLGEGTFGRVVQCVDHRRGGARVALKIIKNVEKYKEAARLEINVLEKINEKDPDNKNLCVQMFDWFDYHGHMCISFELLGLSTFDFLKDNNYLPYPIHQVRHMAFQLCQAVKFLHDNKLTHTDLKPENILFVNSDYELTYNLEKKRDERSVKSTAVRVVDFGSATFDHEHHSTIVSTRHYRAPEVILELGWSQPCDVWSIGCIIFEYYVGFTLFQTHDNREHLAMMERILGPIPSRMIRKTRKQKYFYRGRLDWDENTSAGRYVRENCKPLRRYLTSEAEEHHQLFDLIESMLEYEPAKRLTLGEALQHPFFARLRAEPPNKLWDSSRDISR

[15] = biological target: T3, Inhibitor of nuclear factor kappa-B kinase subunit epsilon (Homo sapiens, UniProt Q14164)
T3 sequence (Q14164 whole entry): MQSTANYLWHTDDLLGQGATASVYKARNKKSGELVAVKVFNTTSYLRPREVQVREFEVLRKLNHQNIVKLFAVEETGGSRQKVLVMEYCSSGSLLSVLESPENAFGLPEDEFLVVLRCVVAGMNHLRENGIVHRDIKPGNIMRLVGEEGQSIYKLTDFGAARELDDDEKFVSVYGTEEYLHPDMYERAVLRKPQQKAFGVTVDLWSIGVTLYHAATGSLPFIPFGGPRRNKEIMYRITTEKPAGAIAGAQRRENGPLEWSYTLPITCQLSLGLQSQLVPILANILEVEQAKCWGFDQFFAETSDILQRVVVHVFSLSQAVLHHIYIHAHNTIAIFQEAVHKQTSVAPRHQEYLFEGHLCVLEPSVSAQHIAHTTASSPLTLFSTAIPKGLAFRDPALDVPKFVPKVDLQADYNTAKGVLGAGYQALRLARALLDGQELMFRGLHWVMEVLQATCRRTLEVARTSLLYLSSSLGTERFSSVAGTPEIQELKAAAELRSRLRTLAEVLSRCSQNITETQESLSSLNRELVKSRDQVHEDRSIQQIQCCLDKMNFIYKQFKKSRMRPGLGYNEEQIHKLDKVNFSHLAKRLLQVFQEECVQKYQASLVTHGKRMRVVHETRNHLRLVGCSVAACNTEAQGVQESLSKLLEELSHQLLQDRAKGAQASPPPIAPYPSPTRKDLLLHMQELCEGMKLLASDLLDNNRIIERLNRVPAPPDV

[16] = biological target: Dual specificity protein kinase CLK3 (Homo sapiens, UniProt P49761); type: subcellular, K-562, COLO 205, SK-N-BE(2) and MV-4-11, Cell lysate; conditions: read-out: Kd apparent
Chain of Dual specificity protein kinase CLK3 (P49761 whole entry): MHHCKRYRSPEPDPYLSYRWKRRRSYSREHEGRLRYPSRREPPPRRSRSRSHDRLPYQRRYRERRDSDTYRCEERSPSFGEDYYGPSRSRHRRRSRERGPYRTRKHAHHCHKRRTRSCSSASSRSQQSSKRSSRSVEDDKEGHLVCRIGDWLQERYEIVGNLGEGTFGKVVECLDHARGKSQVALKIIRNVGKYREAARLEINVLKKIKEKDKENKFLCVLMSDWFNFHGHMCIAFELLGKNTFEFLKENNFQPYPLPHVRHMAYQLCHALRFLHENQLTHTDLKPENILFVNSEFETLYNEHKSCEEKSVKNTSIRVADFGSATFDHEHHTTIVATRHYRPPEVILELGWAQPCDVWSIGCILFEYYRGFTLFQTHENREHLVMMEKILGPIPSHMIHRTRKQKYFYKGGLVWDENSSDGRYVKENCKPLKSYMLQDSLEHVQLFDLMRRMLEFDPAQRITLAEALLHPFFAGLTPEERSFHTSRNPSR
Further: in the data inactive means no Kd found up to 30 µM.

Compound | Kd [1] | Kd [2] | Kd [3] | Kd [4] | Kd [5] | Kd [6] | Kd [7] | Kd [8] | Kd [9] | Kd [10] | Kd [11] | Kd [12] | Kd [13] | Kd [14] | Kd [15] | Kd [16]
CCc1cnn2c(NCc3ccc[n+]([O-])c3)cc(N3CCCC[C@H]3CCO)nc12 [DINACICLIB] | > 30 µM (inactive) | > 30 µM (inactive) | > 30 µM (inactive) | > 30 µM (inactive) | > 30 µM (inactive) | > 30 µM (inactive) | > 30 µM (inactive) | > 30 µM (inactive) | > 30 µM (inactive) |  |  |  |  |  |  | 
CC[C@H](Nc1ncnc2[nH]cnc12)c1nc2cccc(F)c2c(=O)n1-c1ccccc1 [IDELALISIB] | > 30 µM (inactive) |  | > 30 µM (inactive) |  | > 30 µM (inactive) | > 30 µM (inactive) | > 30 µM (inactive) | > 30 µM (inactive) | > 30 µM (inactive) | > 30 µM (inactive) | > 30 µM (inactive) | > 30 µM (inactive) | > 30 µM (inactive) | > 30 µM (inactive) |  | 
CO[C@H]1C[C@@H]2CC[C@@H](C)[C@@](O)(O2)C(=O)C(=O)N2CCCC[C@H]2C(=O)O[C@H]([C@H](C)C[C@@H]2CC[C@@H](OCCO)[C@H](OC)C2)CC(=O)[C@H](C)/C=C(\C)[C@@H](O)[C@@H](OC)C(=O)[C@H](C)C[C@H](C)/C=C/C=C/C=C/1C [EVEROLIMUS] | > 30 µM (inactive) |  | > 30 µM (inactive) | > 30 µM (inactive) |  |  |  | > 30 µM (inactive) | > 30 µM (inactive) | > 30 µM (inactive) | > 30 µM (inactive) | > 30 µM (inactive) | > 30 µM (inactive) | > 30 µM (inactive) | > 30 µM (inactive) | > 30 µM (inactive)
Cc1ccc(-n2nc(C(C)(C)C)cc2NC(=O)NCc2cc(F)ccc2Oc2ccc3c(cnn3CCO)c2)cc1 [PEXMETINIB] | > 30 µM (inactive) | > 30 µM (inactive) | > 30 µM (inactive) | > 30 µM (inactive) |  |  | > 30 µM (inactive) | > 30 µM (inactive) | > 30 µM (inactive) | > 30 µM (inactive) | 3.13 µM (active) | > 30 µM (inactive) | 1.2 µM (active) | > 30 µM (inactive) | > 30 µM (inactive) | 
COC(=O)N[C@@H](C)CNc1nccc(-c2cn(C(C)C)nc2-c2cc(Cl)cc(NS(C)(=O)=O)c2F)n1 [ENCORAFENIB] | > 30 µM (inactive) |  | > 30 µM (inactive) |  | > 30 µM (inactive) | > 30 µM (inactive) |  | > 30 µM (inactive) | > 30 µM (inactive) | > 30 µM (inactive) | > 30 µM (inactive) | > 30 µM (inactive) | > 30 µM (inactive) | > 30 µM (inactive) | > 30 µM (inactive) | > 30 µM (inactive)
Cc1cc(Nc2cc(N3CCN(C)CC3)nc(/C=C/c3ccccc3)n2)n[nH]1 [ENMD-2076] | > 30 µM (inactive) |  |  |  |  | > 30 µM (inactive) |  | > 30 µM (inactive) |  |  |  |  |  |  |  | > 30 µM (inactive)
COc1ccc(-c2ccc3c(N4CCOC[C@@H]4C)nc(N4CCOC[C@@H]4C)nc3n2)cc1CO [AZD-8055] | > 30 µM (inactive) | > 30 µM (inactive) | > 30 µM (inactive) | > 30 µM (inactive) | > 30 µM (inactive) |  | > 30 µM (inactive) | > 30 µM (inactive) | > 30 µM (inactive) | > 30 µM (inactive) | > 30 µM (inactive) | > 30 µM (inactive) | > 30 µM (inactive) | > 30 µM (inactive) | > 30 µM (inactive) | 
CCN1CCN(Cc2ccc(-c3cc4c(N[C@H](C)c5ccccc5)ncnc4[nH]3)cc2)CC1 [AEE-788] | > 30 µM (inactive) | > 30 µM (inactive) |  | > 30 µM (inactive) | > 30 µM (inactive) | > 30 µM (inactive) | > 30 µM (inactive) | > 30 µM (inactive) |  | > 30 µM (inactive) | > 30 µM (inactive) |  |  | > 30 µM (inactive) | > 30 µM (inactive) | 
O=C(Nc1cccc(Cl)c1)Nc1ncc(CCNc2ncnc3ccsc23)s1 [SNS-314] | > 30 µM (inactive) |  | > 30 µM (inactive) | > 30 µM (inactive) |  | > 30 µM (inactive) |  | > 30 µM (inactive) |  |  |  |  |  |  |  | > 30 µM (inactive)
COc1cc2nccc(Oc3ccc(NC(=O)Nc4cc(C)on4)c(Cl)c3)c2cc1OC [TIVOZANIB] | > 30 µM (inactive) | > 30 µM (inactive) | > 30 µM (inactive) | > 30 µM (inactive) | > 30 µM (inactive) | > 30 µM (inactive) | > 30 µM (inactive) | > 30 µM (inactive) |  | > 30 µM (inactive) |  | > 30 µM (inactive) |  | > 30 µM (inactive) | > 30 µM (inactive) | 
COC(=O)[C@@]1(O)C[C@H]2O[C@]1(C)n1c3ccccc3c3c4c(c5c6ccccc6n2c5c31)C(=O)NC4 [K-252A] |  | > 30 µM (inactive) | > 30 µM (inactive) | 0.003 µM |  | > 30 µM (inactive) | 2.14 µM (active) |  | > 30 µM (inactive) |  |  | 0.015 µM (active) |  | 3.81 µM (active) | 0.494 µM (active) | 
Cc1cc(-c2cc(O)ccc2Cl)cc2nnc(Nc3ccc(OCCN4CCCC4)cc3)nc12 | > 30 µM (inactive) | > 30 µM (inactive) | > 30 µM (inactive) | > 30 µM (inactive) | > 30 µM (inactive) | > 30 µM (inactive) | > 30 µM (inactive) |  | > 30 µM (inactive) | > 30 µM (inactive) | > 30 µM (inactive) |  | 0.001 µM (active) | > 30 µM (inactive) | > 30 µM (inactive) | 
O=C(c1ccc(F)c(F)c1Nc1ccc(I)cc1F)N1CC(O)([C@@H]2CCCCN2)C1 [COBIMETINIB] |  |  | > 30 µM (inactive) | > 30 µM (inactive) | > 30 µM (inactive) |  | > 30 µM (inactive) |  | > 30 µM (inactive) | > 30 µM (inactive) | > 30 µM (inactive) | > 30 µM (inactive) | > 30 µM (inactive) | > 30 µM (inactive) | > 30 µM (inactive) | 
Cc1ccc(S(=O)(=O)Nc2nc3ccccc3nc2Nc2ccc3nsnc3c2)cc1 |  |  | > 30 µM (inactive) | > 30 µM (inactive) | > 30 µM (inactive) |  | > 30 µM (inactive) | > 30 µM (inactive) | > 30 µM (inactive) | > 30 µM (inactive) | > 30 µM (inactive) | > 30 µM (inactive) | > 30 µM (inactive) | > 30 µM (inactive) | > 30 µM (inactive) | 
CCCS(=O)(=O)Nc1ccc(F)c(C(=O)c2c[nH]c3ncc(-c4ccc(Cl)cc4)cc23)c1F [VEMURAFENIB] | > 30 µM (inactive) | > 30 µM (inactive) | > 30 µM (inactive) | > 30 µM (inactive) | > 30 µM (inactive) | > 30 µM (inactive) | > 30 µM (inactive) | > 30 µM (inactive) |  | > 30 µM (inactive) | > 30 µM (inactive) | > 30 µM (inactive) | > 30 µM (inactive) | > 30 µM (inactive) | > 30 µM (inactive) | 
